Measured values from EP0450065A1, “ANTIVIRAL AGENT” (priority 1988, dated 1990).
Read-outs that look alike come from different tables or passages of the source.

How the values were obtained:
Assay type in all cases: cell-based
[1] = system: herpes simplex virus type 1 (HF strain); assay: Control of CPE (cytopathic effect) manifestation in vero cells; details: 20 μg/ml, HSV-1 (HF strain), Example 5
Protocol: (§1) In vitro antiviral activity of Compound A against herpes simplex virus type 1 (HF strain) Compound A was tested for antiviral effect by the following two methods.
(§2) Vero cells cultured and grown in a monolayer on microplates to test for cytopathic effect due to viral infection, with solutions of Compound A diluted to varying ratios and solutions of virus diluted to varying ratios added severally thereto in a volume of 0.1 ml, were cultured under the conditions of 5% CO₂ and 37°C and were examined for CPE manifestation under a microscope. The observation was continued for five to six days.
(§3) The degree of CPE brought about by viral infection was rated on the five-point scale, wherein 3 stands for CPE observed on not less than 75% of cultured cells, 2 for CPE observed on 50% of cultured cells, 1 for CPE observed on 25% of cultured cells, 0.5 for occurrence of one to two extremely minute DPE spots, and 0 for perfect absence of recognizable CPE. The CPE scores obtained at the four holes in each microplate were averaged and the difference of the average from the average obtained in the control (omitting the treatment with a chemical) was reported as ΔCPE.
(§4) In vitro antiviral effect of Compound A against herpes simplex virus type 1 (HF strain) The test was carried out by following the procedure of Example 3.

[2] = system: herpes simplex virus type 1 (HF strain); assay: 50% Tissue culture infective dose (TCID50), Read-Munch method, negative logarithm of virus dilution
Protocol: as §1
(§5) The amount of virus infecting 50% of tissues (TCID₅₀) was determined by the Read-Munch method and expressed in negative logarithm of the maximum radio of dilution of virus. The difference of the amount thus determined from the amount found in the control (omitting the treatment with a chemical) was reported as ΔTCID₅₀. A sample whose ΔCPE's found on the last day of observation and on each of the days spent for the observation exceeded 1.0 was evaluated as effective.
as §4

[3] = system: herpes simplex virus type 2 (169 strain); assay: Control of CPE (cytopathic effect) manifestation in vero cells; details: 20 μg/ml, HSV-2 (169), Example 6
Protocol: as §2, §3
(§6) In vitro antiviral activity of Compound A against herpes simplex virus type 2 (169 strain) The test was carried out by following the procedure of Example 3.

[4] = system: herpes simplex virus type 2 (169 strain); assay: 50% Tissue culture infective dose (TCID50), Read-Munch method, negative logarithm of virus dilution; parameters: key to Cytopathic effect [CPE] (5days) △TCID50 / Cytopathic effect [CPE] (6days) △TCID50 / Cytopathic effect [CPE] (3days) △TCID50: difference in -log TCID50 from untreated control; details: HSV-2 (169), Example 6
Protocol: as §5, §6

[5] = system: herpes simplex virus type 1 (KOS strain); assay: Control of CPE (cytopathic effect) manifestation in vero cells; details: 30 μg/ml, HSV-1 (KOS), Example 7
Protocol: as §2, §3
(§7) Antiviral activity of Compound A and Compound B against herpes simplex virus type 1 (KOS strain) The test was carried out by following the procedure of Example 3.

[6] = system: herpes simplex virus type 1 (KOS strain); assay: 50% Tissue culture infective dose (TCID50), Read-Munch method, negative logarithm of virus dilution
Protocol: as §5, §7

[7] = system: herpes simplex virus type 1 (KOS strain); assay: One-step growth of virus, plaque assay with vero cells; details: 30 μg/ml, 24 hours; for log reduction at 30 µg/mL: 24 h, read-out: Intracellular virus Control ratio -logT/C
Protocol: Antiviral activity of Compound A and Compound B against one-step growth of herpes simplex virus type 1 (KOS strain) Cells grown in a monolayer, with a sample of a given compound diluted in a varying ratio added, were pretreated for 15 minutes. Then, the pretreated cells were infected with the herpes simplex virus type 1 (KOS strain) at an infecting ratio of 0.25 and left standing for 24 hours. At the end of the standing, the intracellular and extracellular amounts of virus were determined by the plaque assay with vero cells.

[8] = 20 μg/ml, HSV-1 (HF strain), Example 5
[9] = 30 μg/ml, HSV-1 (KOS), Example 7

For `Nc1ncnc2c1ncn2[C@@H]1O[C@H](CO)[C@@H](O)[C@@H]1O` [Ara A, adenine arabinoside, reference compound], the “Cytopathic effect [CPE] (3days) Average” value [1] was 2.5, the “Cytopathic effect [CPE] (6days) Average” value [1] was 3.0 and the “Cytopathic effect [CPE] (3days) ΔCPE” value ([1]; difference from control) was 0.25. For the same molecule, the “Cytopathic effect [CPE] (6days) ΔCPE” value ([1]; difference from control) was 0, the “Cytopathic effect [CPE] (3days) TCID50” value [2, 8] was 6.5 and the “Cytopathic effect [CPE] (6days) TCID50” value [2, 8] was 6.5. The “Cytopathic effect [CPE] (6days) ΔTCID50” value ([2]; 20 μg/ml, HSV-1 (HF strain), Example 5, difference from control) was “no discernible antiviral effect”, the log reduction at 20 µg/mL ([2]; Human alphaherpesvirus 1, 72 h, read-out: Cytopathic effect [CPE] (3days) ΔTCID50) was -0.2 and the log reduction at 20 µg/mL ([2]; Human alphaherpesvirus 1, 144 h, read-out: Cytopathic effect [CPE] (6days) ΔTCID50) was -0.2. For the same molecule, the “Cytopathic effect [CPE] (3days) Average” value [3] was 0.5, the “Cytopathic effect [CPE] (6days) Average” value [3] was 3.0 and the “Cytopathic effect [CPE] (3days) △CPE” value ([3]; difference from control) was 1.0. For the same molecule, the “Cytopathic effect [CPE] (6days) △CPE” value ([3]; difference from control) was 0, the “Cytopathic effect [CPE] (3days) TCID50” value ([4]; 20 μg/ml) was 7.0 and the “Cytopathic effect [CPE] (6days) TCID50” value ([4]; 20 μg/ml) was 7.5. For the same molecule, the “Cytopathic effect [CPE] (6days) △TCID50” value ([4]; 20 μg/ml, difference from control) was “nil”, the log reduction at 20 µg/mL ([4]; Human alphaherpesvirus 2, 72 h, read-out: Cytopathic effect [CPE] (3days) △TCID50, 20 μg/ml, difference from control) was -0.3 and the log reduction at 20 µg/mL ([4]; Human alphaherpesvirus 2, 144 h, read-out: Cytopathic effect [CPE] (6days) △TCID50, 20 μg/ml, difference from control) was -0.8. The “Cytopathic effect [CPE] (3days) Average” value [5] was 1.0, the “Cytopathic effect [CPE] (5days) Average” value [5] was 2.0 and the “Cytopathic effect [CPE] (3days) △CPE” value ([5]; difference from control) was 1.0. The “Cytopathic effect [CPE] (5days) △CPE” value ([5]; difference from control) was 1.0, the “Cytopathic effect [CPE] (3days) TCID50” value [6, 9] was 5.0 and the “Cytopathic effect [CPE] (5days) TCID50” value [6, 9] was 5.7. The log reduction at 30 µg/mL ([6]; Human alphaherpesvirus 1, 72 h, read-out: Cytopathic effect [CPE] (3days) △TCID50) was 0.5, the log reduction at 30 µg/mL ([6]; Human alphaherpesvirus 1, 120 h, read-out: Cytopathic effect [CPE] (5days) △TCID50) was 0.3 and the “Intracellular virus Average” value ([7]; extracellular virus) was 3.93×10^3 /dish. The “Intracellular virus Average” value [7] was 7.38×10^4 /dish, the log reduction at 30 µg/mL ([7]; Human alphaherpesvirus 1, Vero, extracellular virus) was 3.88 and the log reduction at 30 µg/mL ([7]; Human alphaherpesvirus 1, Vero) was 4.74. The inhibition at 30 µg/mL ([7]; Human alphaherpesvirus 1, Vero, read-out: Intracellular virus Control ratio %) was > 99.9%.
